“And” between values parts separate entries of the source, which are not always exact repeats. Identical values can stand only once. Toxic doses and inconclusive results are not listed. Rule for the calls: active = survival T/C of 150% or more; inactive = T/C below 125% in these data.
Test system: P388 leukemia ip, CD2F1 mice, survival T/C
Assay: NCI In Vivo Anticancer Drug Screen. Data for tumor model P388 Leukemia (intraperitoneal) in CD2F1 (CDF1) mice
Settings: endpoint: median survival time, higher = longer survival
In short: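 Mice carrying the transplanted tumor received test compound or vehicle. Survival was recorded in each group, and the value is the treated-group measurement divided by that of the vehicle-treated control group.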

[1] = dose: 12.5 mg/kg/injection, schedule: Q01DX005 (ip), vehicle: saline with Tween-80
[2] = dose: 25.0 mg/kg/injection, schedule: Q01DX005 (ip), vehicle: saline with Tween-80
[3] = dose: 50.0 mg/kg/injection, schedule: Q01DX005 (ip), vehicle: saline with Tween-80
[4] = dose: 100.0 mg/kg/injection, schedule: Q01DX005 (ip), vehicle: saline with Tween-80
[5] = dose: 200.0 mg/kg/injection, schedule: Q01DX005 (ip), vehicle: saline with Tween-80
[6] = dose: 50.0 mg/kg/injection, schedule: Q01DX005 (ip), vehicle: Klucel (hydroxypropylcellulose) (HPC)
[7] = dose: 100.0 mg/kg/injection, schedule: Q01DX005 (ip), vehicle: Klucel (hydroxypropylcellulose) (HPC)
[8] = dose: 200.0 mg/kg/injection, schedule: Q01DX005 (ip), vehicle: Klucel (hydroxypropylcellulose) (HPC)
[9] = dose: 30.0 mg/kg/injection, schedule: Q01DX005 (ip), vehicle: saline with Tween-80
[10] = dose: 60.0 mg/kg/injection, schedule: Q01DX005 (ip), vehicle: saline with Tween-80
[11] = dose: 120.0 mg/kg/injection, schedule: Q01DX005 (ip), vehicle: saline with Tween-80
[12] = dose: 50.0 mg/kg/injection, schedule: Q01DX009 (ip), vehicle: Klucel (hydroxypropylcellulose) (HPC)
[13] = dose: 100.0 mg/kg/injection, schedule: Q01DX009 (ip), vehicle: Klucel (hydroxypropylcellulose) (HPC)
[14] = dose: 12.5 mg/kg/injection, schedule: Q01DX009 (ip), vehicle: saline
[15] = dose: 25.0 mg/kg/injection, schedule: Q01DX009 (ip), vehicle: saline
[16] = dose: 50.0 mg/kg/injection, schedule: Q01DX009 (ip), vehicle: saline
[17] = dose: 100.0 mg/kg/injection, schedule: Q01DX009 (ip), vehicle: saline
[18] = dose: 200.0 mg/kg/injection, schedule: Q01DX009 (ip), vehicle: saline

Measured: T/C

NC(=O)CC1Cc2ccc3ccc(O)cc3c2C1=O (centres undefined)
inactive: dose: 12.5 mg/kg/injection, schedule: Q01DX009 (ip), vehicle: distilled water + Tween-80 100 % of control | dose: 25.0 mg/kg/injection, schedule: Q01DX009 (ip), vehicle: distilled water + Tween-80 97 % of control | dose: 50.0 mg/kg/injection, schedule: Q01DX009 (ip), vehicle: distilled water + Tween-80 93 % of control | dose: 100.0 mg/kg/injection, schedule: Q01DX009 (ip), vehicle: distilled water + Tween-80 94 % of control | dose: 200.0 mg/kg/injection, schedule: Q01DX009 (ip), vehicle: distilled water + Tween-80 95 % of control

C(#Cc1ccccc1)/C=C/C(=C\c1ccccc1)c1ccccc1
inactive: [1] 101 % of control | [2] 102 % of control | [3] 101 % of control | [4] 100 % of control

O=C1CN(CCN2CCCCC2)CC(=O)N2CCCCN12
inactive: [3] 102 % of control | [4] 107 % of control

Cc1cc(Br)ccc1N1CSC(=S)N(c2ccc(Br)cc2C)C1
inactive: [3] 88 % of control | [4] 90 % of control | [5] 93 % of control

CCCCC1=C([Si](C)(C)C)C(=O)c2ccccc2C1=O
inactive: dose: 25.0 mg/kg/injection, schedule: Q01DX005 (ip), vehicle: Klucel (hydroxypropylcellulose) (HPC) 109 % of control | [6] 110 % of control and 111 % of control and 113 % of control | [7] 115 % of control and 86 % of control | [8] 110 % of control and 118 % of control

COc1cccc(-c2nc(SC)nc(Cl)c2C#N)c1
inactive: dose: 15.0 mg/kg/injection, schedule: Q01DX005 (ip), vehicle: saline with Tween-80 96 % of control | [9] 86 % of control | [10] 108 % of control and 93 % of control | [11] 113 % of control

COc1cc(/C=C/[N+](=O)[O-])cc(Br)c1O
inactive: [9] 119 % of control | [10] 110 % of control and 113 % of control | [11] 102 % of control and 122 % of control

CC1CC(C(=O)c2ccoc2)C(=O)O1 (centres undefined)
inactive: [1] 92 % of control | [2] 97 % of control | [3] 101 % of control and 91 % of control

O=C1CC2(CCc3ccccc32)C(=O)N1CCN1CCOCC1 (centres undefined)
inactive: [3] 100 % of control | [4] 95 % of control | [5] 105 % of control

CC1(C)OCC(C2OC(C)(C)OC2C2COC(C)(C)O2)O1 (centres undefined)
inactive: dose: 12.5 mg/kg/injection, schedule: Q01DX009 (ip), vehicle: Klucel (hydroxypropylcellulose) (HPC) 105 % of control | dose: 25.0 mg/kg/injection, schedule: Q01DX009 (ip), vehicle: Klucel (hydroxypropylcellulose) (HPC) 106 % of control | [12] 108 % of control | [13] 100 % of control

O=C(Nc1ccc(Cl)cc1)NC1OC(=O)C(Cl)=C1Cl (centres undefined)
inactive: dose: 6.25 mg/kg/injection, schedule: Q01DX009 (ip), vehicle: saline 105 % of control | [14] 108 % of control | [15] 106 % of control | [16] 117 % of control | [17] 106 % of control

O=S(=O)(Nc1ccnn1-c1ccccc1)c1ccc(NC(=S)Nc2ccccc2)cc1
inactive: [3] 96 % of control | [4] 93 % of control | [5] 91 % of control

O=c1[nH]ncn2nc3ccccc3c12
inactive: [3] 100 % of control | [4] 100 % of control | [5] 104 % of control

CCn1c(Cl)c(/C=N\Nc2ccc([N+](=O)[O-])cc2)c2ccccc21
inactive: dose: 100.0 mg/kg/injection, schedule: Q01DX001 (ip), vehicle: saline 94 % of control | dose: 200.0 mg/kg/injection, schedule: Q01DX001 (ip), vehicle: saline 95 % of control | dose: 400.0 mg/kg/injection, schedule: Q01DX001 (ip), vehicle: saline 95 % of control

N#CC(c1ccccc1)C1NC(C(=O)O)CS1 (centres undefined)
inactive: dose: 50.0 mg/kg/injection, schedule: Q01DX009 (ip), vehicle: suspension in saline 106 % of control | dose: 100.0 mg/kg/injection, schedule: Q01DX009 (ip), vehicle: suspension in saline 93 % of control | dose: 200.0 mg/kg/injection, schedule: Q01DX009 (ip), vehicle: suspension in saline 93 % of control

N#Cc1cc2cc3c4c(c2oc1=O)CCCN4CCC3
inactive: [6] 95 % of control | [7] 94 % of control | [8] 95 % of control

CCOC(=O)NCP(Cl)(CNC(=O)OCC)(CNC(=O)OCC)CNC(=O)OCC
inactive: [16] 99 % of control | [17] 86 % of control

CN1CC2CN(C)CC(C1)C2(O)c1ccccc1 (centres undefined)
inactive: [14] 97 % of control | [15] 98 % of control

CC(C)(C)CC(C)(C)c1ccc(OCCO)cc1
inactive: dose: 50.0 mg/kg/injection, schedule: Q04DX003 (ip), vehicle: saline 91 % of control | dose: 100.0 mg/kg/injection, schedule: Q04DX003 (ip), vehicle: saline 108 % of control

Cn1c(Cl)c(/C=C(/NC(=O)c2ccccc2)C(=O)O)c2ccccc21
inactive: dose: 100.0 mg/kg/injection, schedule: Q01DX001 (ip), vehicle: Klucel (hydroxypropylcellulose) (HPC) 102 % of control | dose: 200.0 mg/kg/injection, schedule: Q01DX001 (ip), vehicle: Klucel (hydroxypropylcellulose) (HPC) 93 % of control | dose: 400.0 mg/kg/injection, schedule: Q01DX001 (ip), vehicle: Klucel (hydroxypropylcellulose) (HPC) 93 % of control

CCC[CH2][Ge]([CH2]CCC)([CH2]CCC)[S][Ge]([CH2]CCC)([CH2]CCC)[CH2]CCC
inactive: [16] 91 % of control | [17] 92 % of control | [18] 97 % of control

CCOC(=O)C(C)c1ccccc1-c1cccc(OC)c1 (centres undefined)
inactive: [3] 94 % of control | [4] 97 % of control | [5] 103 % of control

CN1CCC(OC(=O)Oc2ccccc2)CC1
inactive: [16] 105 % of control | [17] 92 % of control | [18] 102 % of control

Nc1ncc2c(n1)CCCC2
inactive: [3] 98 % of control | [4] 98 % of control | [5] 100 % of control

COc1ccc2cc3[n+](c(CC(=O)O)c2c1OC)CCc1cc2c(cc1-3)OCO2
inactive: dose: 0.63 mg/kg/injection, schedule: Q01DX009 (ip), vehicle: water 101 % of control | dose: 1.25 mg/kg/injection, schedule: Q01DX009 (ip), vehicle: water 88 % of control | dose: 2.5 mg/kg/injection, schedule: Q01DX009 (ip), vehicle: water 105 % of control | dose: 5.0 mg/kg/injection, schedule: Q01DX009 (ip), vehicle: water 117 % of control | dose: 10.0 mg/kg/injection, schedule: Q01DX009 (ip), vehicle: water 118 % of control

O=C1C=CC(=Nc2cc(Br)c(O)c(Br)c2)C=C1
inactive: dose: 12.5 mg/kg/injection, schedule: Q01DX005 (ip), vehicle: saline 103 % of control | dose: 25.0 mg/kg/injection, schedule: Q01DX005 (ip), vehicle: saline 99 % of control | dose: 50.0 mg/kg/injection, schedule: Q01DX005 (ip), vehicle: saline 89 % of control and 95 % of control

NC(/N=C/c1cc(Cl)cc(Cl)c1O)=N\S(=O)(=O)c1ccc(N=Cc2cc(Cl)cc(Cl)c2O)cc1
inactive: dose: 50.0 mg/kg/injection, schedule: Q01DX009 (ip), vehicle: saline with Tween-80 98 % of control | dose: 100.0 mg/kg/injection, schedule: Q01DX009 (ip), vehicle: saline with Tween-80 91 % of control | dose: 200.0 mg/kg/injection, schedule: Q01DX009 (ip), vehicle: saline with Tween-80 98 % of control

Cc1nc2c(N)n[nH]c(=O)n2n1
inactive: [10] 103 % of control | [11] 100 % of control | dose: 240.0 mg/kg/injection, schedule: Q01DX005 (ip), vehicle: saline with Tween-80 99 % of control

CC[C@@H]1C[C@H]2CN(CCc3c([nH]c4ccccc34)[C@@](C(=O)OC)(c3cc4c(cc3OC)N(C)[C@H]3[C@@](O)(C(=O)OC)[C@H](OC(C)=O)[C@]5(CC)CCCN6CC[C@]43[C@@H]65)C2)C1
inactive: dose: 0.06 mg/kg/injection, schedule: Q01DX009 (ip), vehicle: water 104 % of control | dose: 0.13 mg/kg/injection, schedule: Q01DX009 (ip), vehicle: water 104 % of control | dose: 0.25 mg/kg/injection, schedule: Q01DX009 (ip), vehicle: water 105 % of control and 110 % of control | dose: 0.5 mg/kg/injection, schedule: Q01DX009 (ip), vehicle: water 108 % of control and 118 % of control
active: dose: 2.0 mg/kg/injection, schedule: Q01DX009 (ip), vehicle: saline with Tween-80 150 % of control | dose: 4.0 mg/kg/injection, schedule: Q01DX009 (ip), vehicle: saline with Tween-80 159 % of control

COc1cc(CC2C(=O)OCC2C2(c3ccc4c(c3)OCO4)SCCCS2)cc(OC)c1OC (centres undefined)
inactive: [12] 105 % of control | [13] 91 % of control | dose: 200.0 mg/kg/injection, schedule: Q01DX009 (ip), vehicle: Klucel (hydroxypropylcellulose) (HPC) 93 % of control
